In patent US11795454B2, “Targeted delivery system” (Cedars-Sinai Medical Center, priority 2009, dated 2023):
Where two headings read alike, the source gives them in different places.

Columns and labels:
U87 human glioma tumors = tested on: U87 human glioma tumors
Protocol: FIG. 29A, Live mouse imaging of HerDox at indicated time points after injection. Arrows, Tumors. 29B-29C, Comparative biodistribution of HerDox and Dox in tissues harvested at 3 h post-injection. FIG. 29B, Imaging of biodistribution in harvested tissues. Pseudocolored FI corresponds to the color bar. Max, highest FI. FIG. 29C, Quantification of HerDox and Dox biodistribution, showing Dox FI/tissue. FIG. 29D. Comparative pharmacokinetics of HerDox and Dox in mice with tumors expressing differential HER2. Tissues were harvested from independently injected mice euthanized at indicated time points after injection and FI/tissue acquired using a small animal imaging system as described herein.
Heart rate and body temperature were monitored. […] Three beats were averaged for each measurement.
A customized macro-illumination and detection system was used for in vivo and tissue imaging. Dox was excited with the 488 nm line of a Coherent Innova ArKr laser. […] Fluorescence light was collected via a telecentric lens (Melles-Griot 59LGG925 base lens with a 59LGL428 attachment lens) that can operate at f/#2, has a magnification of 0.9, working distance of 257 mm and a depth of field of 81.5 mm. […] ImageJ was used to calculate average fluorescence intensities of the overall region of each selected tissue. […]

[1] = Protocol: FIG. 26A. Stability in blood. […] N=3. […] Control conditions preventing digest include using heat-inactivated (HI) serum and 0° C. incubation. FIG. 26C. Assessing Dox retention in serum.
To study stability in blood, HerDox or Dox (60 uM each) were incubated in equivalent volumes of whole blood (containing 0.5 mM EDTA to prevent coagulation and freshly collected from the aorta of an anesthetized mouse following IACUC-approved procedures) for up to 60 min at 37° C., followed by centrifugation through 10K mwco filters. Retentate and filtrate fluorescences were extrapolated against a Dox calibration curve performed in blood plasma to correct for plasma-induced fluorescence shift. […] Control conditions preventing digest include using heat-inactivated serum and 0° C. incubation. […] Filtrates were collected and membranes washed 3× with HBS before collection and fluorescence measurement of retentates. All fluorescence spectra were obtained using a 515 nm cutoff filter.

MDA-MB-435 (HER2+) cells = experiment: HerDox targeted toxicity in vitro, separate cultures; type: cell-based, human; settings: MDA-MB-435, day 3
Protocol: (§1) All treatments, N=3. FIG. 27A. Comparing cytotoxicity to HER2+ (MDAMB-435) and HER2− (MDA-MB-231) cells in separate cultures. Left, Relative survival (as % of untreated cells) on day 3 of treatment. Right, Micrograph of live cells after treatment. Control, mock (HBS) treatment. FIG. 27B, Receptor specificity of cytotoxicity. […] FIG. 27C, Toxicity to cells displaying differential HER2. Cytotoxicities from HerDox titrations were assessed on each cell line by metabolic assay and confirmed by crystal violet stain on day 3 of treatment. CD50 values (shown in log scale) were determined by non-linear regression analyses of HerDox killing curves using GraphPad Prism. The relative HER2 level of each cell line is shown next to each CD50 value. FIG. 27D, Targeting in a mixed MDA-MB-435(HER2+,GFP−)/MDA-MB-231(HER2−,GFP+) cell culture. Survival was determined by calculating the relative doubling time (DT) of experimental (exp) cells normalized by mock-treated (con) cells based on crystal violet stains (total cells) and GFP fluorescence (MDAMB-231 cells), and applying DTMDA-MB-435=DTTotal-DTMDA-MB-231 as previously described. Relative survival is shown for Day 2 of treatment. FIG. 27E, Targeted glioma cell death in vitro. U251 cells were treated once with the indicated HerDox (and competitive inhibitor where indicated) or Dox doses and measured for cell survival at the indicated time points after treatment. * P<0.05 compared to Mock.
For all in vitro treatments, cell lines were grown for ˜36 h after plating (104/well in 96-well dishes) to allow receptor re-expression, followed by media replacement with new media containing indicated constructs in reduced volume at the indicated final molarities for 4 h with rocking, followed by supplementation with additional media and continued growth for the indicated time periods. Except for the experiments performed on the U251 glioma cells (which received a one-time treatment), cells received these treatments daily while separate sets of wells were assessed for cell death by either metabolic assay (CellTiter Promega Corporation, Madison, WI, USA) or crystal violet stain each day. Where indicated, cells received competitive inhibitor (eHRG) at 10× molar excess for 30 min-1 h at 4° C. before treatment. Treatment of mixed (HER2+/HER2−) cell cultures with HerDox or Dox (0.5 uM), and cell surface receptor subunit level determination were performed as previously described.

U251 human glioma cells = experiment: Targeted glioma cell death in vitro; type: cell-based; settings: single dose
Protocol: as §1, with “FIG. 27E, Targeted glioma cell death in vitro.” left out, “Mock. […]” for “Mock.”

MDA-MB-435 cells = experiment: Uptake and intracellular trafficking, confocal fluorescence microscopy; type: cell-based, human; settings: 0.5 uM final Dox concentration
Protocol: FIG. 28A. […] Dox fluorescence (magenta) is overlaid on DIC images. FIG. 28D. […] Relaxed (nicked) and supercoiled (sc) plasmid forms are indicated.
General procedures: MDA-MB-435 cells were plated ˜36 h before receiving HerDox or Dox (0.5 uM final Dox concentration) in fresh media containing the indicated constructs. For live cell assays, the cells (plated in chambers) were imaged at the indicated time points after treatment, under brightfield or DIC (where indicated) and fluorescence modes to identify the cell structure and Dox fluorescence, respectively. For fixed cell assays, the cells were plated on cover slips in 24-well plates (1×10^5 cells/well) ˜36 h before receiving HerDox or Dox in fresh complete media at 37° C., and separate samples fixed and processed for immunofluorescence against HerPBK10 following established procedures. A Leica SP2 laser-scanning confocal fluorescence microscope was used for fixed and live cell imaging.
The ability to visualize nuclear Dox fluorescence after cell exposure to free Dox has been used frequently to detect Dox uptake in cells, and has been attributed to interaction with histones. To determine whether these localization differences indicate that Dox remains attached to HerPBK10 during uptake, the inventors used a counterstain for HerPBK10.

## COc1cccc2c1C(=O)c1c(O)c3c(c(O)c1C2=O)C[C@@](O)(C(=O)CO)C[C@@H]3O[C@H]1C[C@H](N)[C@H](O)[C@H](C)O1.Cl [Dox, Doxorubicin-HCl, reference compound]
U87 human glioma tumors; mouse, in vivo, iv
  delivery to U87 tumors higher compared to MDA-MB-435 tumors: 200-300 fluorescence units per tissue
[1]
  Dox loss from retentates: ~70%
  protection of the DNA duplex from serum degradation: partially protected the DNA from serum degradation
[1]; mouse, serum
  remaining free Dox (weak or non-specific binding to serum proteins): ~30%
MDA-MB-435 (HER2+) cells
  toxicity / survival: no preference
U251 human glioma cells
  cell death: 75-80%
MDA-MB-435 cells
  subcellular localization of Dox fluorescence: detectable at the nuclear periphery immediately after administration

B1: HerDox: self-assembled nanoparticle of oligonucleotide duplex, doxorubicin and HerPBK10 (conjugate)
chain: LPPRLKEMKSQESAAGSKLVLRCETSSEYSSLRFKWFKNGNELNRKNKPQNIKIQKKPGKSELRINKASLADSGEYMCKVISKLGNDSASANITIVESNEIITGMPASTEGAYVSSESPIRISVSTEGANTSSSTSTSTTGTSHLVKCAEKEKTFCVNGGECFMVKDLSNPSRYLCKCQPGFTGARCTENVPMKVQNQEKAEELYMRRAAMYEEGPPPSYESVVSAAPVAAALGSPFDAPLDPPFVPPRYLRPTGGRNSIRYSELAPLFDTTRVYLVDNKSTDVASLNYQNDHSNFLTTVIQNNDYSPGEASTQTINLDDRSHWGGDLKTILHTNMPNVNEFMFTNKFKARVMVSRLPTKDNQVELKYEWVEFTLPEGNYSETMTIDLMNNAIVEHYLKVGRQNGVLESDIGVKFDTRNFRLGFDPVTGLVMPGVYTNEAFHPDIILLPGCGVDFTHSRLSNLLGIRKRQPFQEGFRITYDDLEGGNIPALLDVDAYQASLKDDTEQGGGGAGGSNSSGSGAEENSNAAAAAMQPVEDMNDHAIRGDTFATRAEEKRAEAEAAAEAAAPAAQPEVEKPQKKPVIKPLTEDSKKRSYNLISNDSTFTQYRSWYLAYNYGDPQTGIRSWTLLCTPDVTCGSEQVYWSLPDMMQDPVTFRSTRQISNFPVVGAELLPVHSKSFYNDQAVYSQLIRQFTSLTHVFNRFPENQILARPPAPTITTVSENVPALTDHGTLPLRNSIGGVQRVTITDARRRTCPYVYKALGIVSPRVLSSRTFKKKKKKKKKK
U87 human glioma tumors; i.v.
  delivery to U87 tumors lower compared to MDA-MB-435 tumor-bearing mice: ~50%
[1]; 100% mouse serum, 30 min at 37° C., 10K mwco
  Dox loss from retentates: no Dox loss was detected
MDA-MB-435 (HER2+) cells
  toxicity / survival: significant toxicity
U251 human glioma cells
  cell death: 96-99%
MDA-MB-435 cells
  subcellular localization of Dox fluorescence: nuclear accumulation by 60 min
